From patent US9999222B2, “Herbicidal combination comprising azines” (BASF SE, priority 2014, dated 2018)
Several values for one entry are separate records, joined by “and”; a condition that tells them apart may be missing. Equal values may be shown once. Read-outs that look alike come from different tables or passages of the source.

Legend:
Assay in all cases: Greenhouse test, pre-emergence treatment
ECHCG = assay type: in vivo, Echinocloa crus-galli; conditions: Echinochloa crus-galli, 480 h, read-out: observed % activity 20 DAT
Source text: (§1) The culture containers used were plastic flowerpots containing loamy sand with approximately 3.0% of humus as the substrate. The seeds of the test plants were sown separately for each species.
(§2) For the pre-emergence treatment, the active ingredients, which had been suspended or emulsified in water, were applied directly after sowing by means of finely distributing nozzles. The containers were irrigated gently to promote germination and growth and subsequently covered with transparent plastic hoods until the plants had rooted. This cover caused uniform germination of the test plants, unless this had been impaired by the active ingredients.
(§3) Depending on the species, the plants were kept at 10-25° C. or 20-35° C., respectively.
(§4) The test period extended over 2 to 4 weeks. During this time, the plants were tended, and their response to the individual treatments was evaluated.
(§5) Evaluation was carried out using a scale from 0 to 100. 100 means no emergence of the plants, or complete destruction of at least the aerial moieties, and 0 means no damage, or normal course of growth. A moderate herbicidal activity is given at values of at least 60, a good herbicidal activity is given at values of at least 70, and a very good herbicidal activity is given at values of at least 85.
(§6) The respective stated components a and b, and if appropriate, c were formulated as a 10% by weight strength emulsion concentrate and, with addition of the amount of solvent system, introduced into the spray liquor used for applying the active compound.
(§7) In the examples, the solvent used was water.
(§8) In the examples below, using the method of S. R. Colby (1967) “Calculating synergistic and antagonistic responses of herbicide combinations”, Weeds 15, p. 22ff., the value E, which is expected if the activity of the individual active compounds is only additive, was calculated. E=X+Y−(X·Y/100) where • X=percent activity using active compound a at an application rate A; • Y=percent activity using active compound b at an application rate B; • E=expected activity (in %) by a+b at application rates A+B.
(§9) If the value found experimentally is higher than the value E calculated according to Colby, a synergistic effect is present.

VIOAR = assay type: in vivo, Viola arvensis; conditions: Viola arvensis, 480 h, read-out: observed % activity 20 DAT
Source text: as §1, §2, §3, §4, §5, §6, §7, §8, §9

KCHSC = assay type: in vivo, Kochia scoparia; conditions: for inhibition at 31 g/ha: use rate 31 g ai/ha; for inhibition at 62 g/ha: use rate 62 g ai/ha; for observed % activity: 20 DAT
Procedure, shortened: (§10)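 Seeds were sown in loamy sand with approximately 3.0% humus, then sprayed at once with actives suspended or emulsified in water. Pots were watered, hooded until rooting, held at 10-25° C. or 20-35° C. by species for 2 to 4 weeks, and scored 0 (no damage) to 100 (no emergence/complete destruction).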

LOLMU = assay type: in vivo, Lolium multiflorum; conditions: for observed % activity: 20 DAT
Source text: as §1, §2, §3, §4, §5, §6, §7, §8, §9

POLCO = assay type: in vivo, Polygonum convolvulus; conditions: for inhibition at 62 g/ha: use rate 62 g ai/ha; for observed % activity: 20 DAT
Procedure, shortened: as §10

APESV = assay type: in vivo, Apera spica-venti; conditions: use rate 15.5 g ai/ha
Source text: as §1, §2, §3, §4, §5, §6, §7, §8, §9

ALOMY = assay type: in vivo, Alopecurus myosuroides
Source text: as §1, §2, §3, §4, §5, §6, §7, §8, §9

SETFA = assay type: in vivo, Setaria faberi; conditions: for inhibition at 7.75 g/ha / inhibition at 15.5 g/ha: Setaria faberi, 480 h, read-out: observed % activity 20 DAT; for inhibition at 15.5 g/ha: use rate 15.5 g ai/ha
Source text: as §1, §2, §3, §4, §5, §6, §7, §8, §9

GERPU = assay type: in vivo, Geranium pusillum; conditions: pre-emergence, pre-emergence
Procedure, shortened: as §10

PHACA = assay type: in vivo, Phalaris canariensis
Source text: as §1, §2, §3, §4, §5, §6, §7, §8, §9

SORHA = assay type: in vivo, Sorghum halepense; conditions: 125 g ai/ha, 20 DAT
Source text: as §1, §2, §3, §4, §5, §6, §7, §8, §9

GALAP = assay type: in vivo, Galium aparine; conditions: 20 DAT
Procedure, shortened: as §10

AVEFA = assay type: in vivo, Avena fatua; conditions: 250 g ai/ha, 20 DAT
Source text: as §1, §2, §3, §4, §5, §6, §7, §8, §9

[1] = Bassia scoparia, pre-emergence, 480 h, KCHSC, pre-emergence, individual, read-out: observed % activity 20 DAT
[2] = Bassia scoparia, pre-emergence, 480 h, pre-emergence, read-out: observed % activity 20 DAT
[3] = pre-emergence, use rate 7.75 g ai/ha
[4] = pre-emergence, use rate 15.5 g ai/ha
[5] = pre-emergence, use rate 31 g ai/ha
[6] = pre-emergence, use rate 62 g ai/ha

CC(C)(F)c1nc(N)nc(Nc2c(F)cccc2F)n1 [compound 10, N4-(2,6-difluorophenyl)-6-(1-fluoro-1-methyl-ethyl)-1,3,5-triazine-2,4-diamine]
inhibition at 7.75 g/ha (ECHCG; use rate 7.75 g ai/ha): 90%
inhibition at 15.5 g/ha (ECHCG; use rate 15.5 g ai/ha): 95%
inhibition at 7.75 g/ha (VIOAR; use rate 7.75 g ai/ha): 90%
inhibition at 15.5 g/ha (VIOAR; use rate 15.5 g ai/ha): 85%
inhibition at 31 g/ha (KCHSC; [1]): 75%
inhibition at 62 g/ha (KCHSC; [1]): 90%
inhibition at 16.5 g/ha (KCHSC; Bassia scoparia, pre-emergence, 480 h, pre-emergence, use rate 16.5 g ai/ha, read-out: observed % activity 20 DAT): 65%
inhibition at 31 g/ha (KCHSC; [2]): 95%
inhibition at 62 g/ha (KCHSC; [2]): 90%
observed % activity 20 DAT (KCHSC; [3]): 85% and 55%
observed % activity 20 DAT (KCHSC; [4]): 85%
inhibition at 7.75 g/ha (LOLMU; Lolium multiflorum, pre-emergence, 480 h, LOLMU, pre-emergence, individual, use rate 7.75 g ai/ha, read-out: observed % activity 20 DAT): 30%
inhibition at 31 g/ha (LOLMU; Lolium multiflorum, pre-emergence, 480 h, LOLMU, pre-emergence, individual, use rate 31 g ai/ha, read-out: observed % activity 20 DAT): 70%
inhibition at 31 g/ha (LOLMU; Lolium multiflorum, pre-emergence, 480 h, pre-emergence, use rate 31 g ai/ha, read-out: observed % activity 20 DAT): 70%
inhibition at 62 g/ha (LOLMU; Lolium multiflorum, pre-emergence, 480 h, pre-emergence, use rate 62 g ai/ha, read-out: observed % activity 20 DAT): 90%
observed % activity 20 DAT (LOLMU; [3]): 15% and 20% and 0%
observed % activity 20 DAT (LOLMU; [4]): 35% and 50% and 25%
observed % activity 20 DAT (LOLMU; [5]): 80%
observed % activity 20 DAT (LOLMU; [6]): 85%
inhibition at 62 g/ha (POLCO; Fallopia convolvulus, pre-emergence, 480 h, POLCO, pre-emergence, individual, read-out: observed % activity 20 DAT): 95%
inhibition at 7.75 g/ha (POLCO; Fallopia convolvulus, pre-emergence, 480 h, pre-emergence, use rate 7.75 g ai/ha, read-out: observed % activity 20 DAT): 70%
inhibition at 15.5 g/ha (POLCO; Fallopia convolvulus, pre-emergence, 480 h, pre-emergence, use rate 15.5 g ai/ha, read-out: observed % activity 20 DAT): 90%
inhibition at 62 g/ha (POLCO; Fallopia convolvulus, pre-emergence, 480 h, pre-emergence, read-out: observed % activity 20 DAT): 95%
observed % activity 20 DAT (POLCO; [3]): 75%
inhibition at 15.5 g/ha (APESV; Apera spica-venti, 480 h, read-out: observed % activity 20 DAT): 95%
observed % activity 20 DAT (APESV): 98%
inhibition at 15.5 g/ha (ALOMY; Alopecurus myosuroides, pre-emergence, 480 h, ALOMY, pre-emergence, individual, use rate 15.5 g ai/ha, read-out: observed % activity 20 DAT): 65%
inhibition at 31 g/ha (ALOMY; Alopecurus myosuroides, pre-emergence, 480 h, ALOMY, pre-emergence, individual, use rate 31 g ai/ha, read-out: observed % activity 20 DAT): 90%
inhibition at 62 g/ha (ALOMY; Alopecurus myosuroides, pre-emergence, 480 h, ALOMY, pre-emergence, individual, use rate 62 g ai/ha, read-out: observed % activity 20 DAT): 90%
inhibition at 7.75 g/ha (ALOMY; Alopecurus myosuroides, pre-emergence, 480 h, pre-emergence, use rate 7.75 g ai/ha, read-out: observed % activity 20 DAT): 65%
inhibition at 31 g/ha (ALOMY; Alopecurus myosuroides, pre-emergence, 480 h, pre-emergence, use rate 31 g ai/ha, read-out: observed % activity 20 DAT): 90%
inhibition at 62 g/ha (ALOMY; Alopecurus myosuroides, pre-emergence, 480 h, pre-emergence, use rate 62 g ai/ha, read-out: observed % activity 20 DAT): 90%
observed % activity 20 DAT (ALOMY; [3]): 75%
observed % activity 20 DAT (ALOMY; [4]): 70% and 95%
observed % activity 20 DAT (ALOMY; [5]): 98%
observed % activity 20 DAT (ALOMY; [6]): 95% and 98%
inhibition at 7.75 g/ha (SETFA; SETFA, individual, use rate 7.75 g ai/ha): 90%
inhibition at 15.5 g/ha (SETFA; SETFA, individual): 98%
inhibition at 7.75 g/ha (SETFA; use rate 7.75 g ai/ha): 75%
inhibition at 15.5 g/ha (SETFA): 95%
observed % activity 20 DAT (SETFA; use rate 7.75 g ai/ha): 65%
inhibition at 15.5 g/ha (GERPU; Geranium pusillum, 480 h, use rate 15.5 g ai/ha, read-out: observed % activity 20 DAT): 75%
observed % activity 20 DAT (GERPU; use rate 7.75 g ai/ha): 50%
inhibition at 31 g/ha (PHACA; Phalaris canariensis, pre-emergence, 480 h, pre-emergence, use rate 31 g ai/ha, read-out: observed % activity 20 DAT): 80%
inhibition at 62 g/ha (PHACA; Phalaris canariensis, pre-emergence, 480 h, pre-emergence, use rate 62 g ai/ha, read-out: observed % activity 20 DAT): 75%
observed % activity 20 DAT (PHACA; [4]): 60%
observed % activity 20 DAT (PHACA; [5]): 85%
observed % activity 20 DAT (PHACA; [6]): 70%

COC[C@H](C)N(C(=O)CCl)c1c(C)csc1C [dimethenamid-P]
observed % activity (KCHSC; 125 g ai/ha): 40%
observed % activity (KCHSC; 250 g ai/ha): 85%
observed % activity (SORHA): 98%
observed % activity (LOLMU; 125 g ai/ha): 95%
observed % activity (LOLMU; 250 g ai/ha): 95%
observed % activity (POLCO; 125 g ai/ha): 55%
observed % activity (POLCO; 250 g ai/ha): 50%
observed % activity (ALOMY; 125 g ai/ha, 20 DAT): 45%
observed % activity (GALAP; 125 g ai/ha): 30%
observed % activity (GALAP; 250 g ai/ha): 50%
observed % activity (PHACA; 125 g ai/ha, 20 DAT): 80%
observed % activity (AVEFA): 65%
